According to DBAASP:
In brackets after ≈: the same amount, converted by molar mass. Each block holds one compound with its values, some of them ahead of it.

Experiments:
Assay in all cases: ≥ marks a high value that may be exact or a test limit, other limits are often not marked, values filed in µg/mL are converted to µM
Escherichia coli BW25113 = tested on: Escherichia coli BW25113
Streptococcus mutans = tested on: Streptococcus mutans
[1] = tested on: Candida albicans ATCC 2002
Bacillus subtilis = tested on: Bacillus subtilis
[2] = tested on: Staphylococcus aureus ATCC 43300
Escherichia coli ML-35p = tested on: Escherichia coli ML-35p
[3] = tested on: Staphylococcus aureus ATCC 25923
[4] = tested on: Pseudomonas aeruginosa PAO1
[5] = tested on: Staphylococcus aureus ATCC 2592
[6] = tested on: Pseudomonas aeruginosa ATCC 27853
[7] = tested on: Staphylococcus aureus ATCC 9144
[8] = tested on: Escherichia coli ATCC 25922
[9] = tested on: Corynebacterium glutamicum ATCC 13032
[10] = tested on: Staphylococcus aureus ATCC BAA-1556
Staphylococcus aureus = tested on: Staphylococcus aureus
Escherichia coli B = tested on: Escherichia coli B
Pseudomonas aeruginosa = tested on: Pseudomonas aeruginosa
Bacillus subtilis 168 = tested on: Bacillus subtilis 168

MIC (Streptococcus mutans): ≥ 40.1 µM
SMILES: CC(C)C[C@H](NC(=O)[C@H](Cc1cnc[nH]1)NC(=O)[C@H](CCCCN)NC(=O)[C@H](Cc1c[nH]c2ccccc12)NC(=O)[C@H](CCCN=C(N)N)NC(=O)[C@H](CCCCN)NC(=O)[C@H](Cc1ccccc1)NC(=O)[C@H](CC(C)C)NC(=O)[C@@H](N)CCCCN)C(=O)N[C@@H](Cc1ccccc1)C(=O)N[C@@H](CCCN=C(N)N)C(=O)O [KLFKRWKHLFR]

MIC [4]: 1.28 µM (≈ 2.5 µg/mL)
MIC [1]: 2.57 µM (≈ 5 µg/mL)
MIC [5]: 1.28 µM (≈ 2.5 µg/mL)
MIC (Bacillus subtilis): 7.71 µM (≈ 15 µg/mL)
MIC [2]: 1.28 µM (≈ 2.5 µg/mL)
MIC (Escherichia coli ML-35p): 15.4 µM (≈ 30 µg/mL)
MIC [6]: 1.28 µM (≈ 2.5 µg/mL)
SMILES: CSCC[C@H](NC(=O)[C@H](CO)NC(=O)[C@H](CO)NC(=O)[C@H](CC(C)C)NC(=O)[C@H](C)NC(=O)CNC(=O)[C@H](Cc1ccccc1)NC(=O)[C@H](CC(C)C)NC(=O)[C@H](CC(C)C)NC(=O)[C@@H]1CCCN1C(=O)[C@H](Cc1ccccc1)NC(=O)[C@@H](N)Cc1ccccc1)C(=O)N[C@@H](CCSC)C(=O)N1CCC[C@H]1C(=O)N[C@@H](CCCCN)C(=O)N[C@@H](CC(C)C)C(=O)N[C@@H](Cc1ccccc1)C(N)=O [FFPLLFGALSSMMPKLF]

MIC [7]: ≥ 50 µM
MIC [8]: 6.3 µM (≈ 9.63 µg/mL)
MIC [9]: 1.6 µM (≈ 2.44 µg/mL)
MIC [6]: 6.3 µM (≈ 9.63 µg/mL)
SMILES: CC(C)[C@H](NC(=O)[C@H](CCCCN)NC(=O)[C@H](C)NC(=O)[C@@H](NC(=O)[C@@H](NC(=O)[C@H](CCCN=C(N)N)NC(=O)[C@H](CCCN=C(N)N)NC(=O)[C@H](Cc1c[nH]c2ccccc12)NC(=O)[C@H](Cc1c[nH]c2ccccc12)NC(=O)CN)[C@@H](C)O)C(C)C)C(=O)N[C@@H](CCCN=C(N)N)C(=O)N[C@@H](CC(N)=O)C(N)=O [GWWRRTVAKVRN]

MIC [10]: ≥ 100 µM
SMILES: CC(C)C[C@H](NC(=O)[C@H](Cc1c[nH]c2ccccc12)NC(=O)[C@H](CC(C)C)NC(=O)[C@H](CC(C)C)NC(=O)[C@H](Cc1c[nH]c2ccccc12)NC(=O)[C@H](Cc1c[nH]c2ccccc12)NC(=O)[C@H](CC(C)C)NC(=O)[C@H](Cc1c[nH]c2ccccc12)NC(=O)[C@@H](N)Cc1c[nH]c2ccccc12)C(N)=O [WWLWWLLWL]

MIC (Staphylococcus aureus): 10.9 µM (≈ 12.2 µg/mL)
MIC (Escherichia coli B): 9.1 µM (≈ 10.2 µg/mL)
MIC (Pseudomonas aeruginosa): 59 µM (≈ 65.9 µg/mL)
MIC (Bacillus subtilis 168): 2.9 µM (≈ 3.24 µg/mL)
SMILES: CC[C@H](C)[C@H](NC(=O)[C@H](CO)NC(=O)[C@H](CC(C)C)NC(=O)[C@H](Cc1ccccc1)NC(=O)CN)C(=O)N[C@@H](CC(C)C)C(=O)N[C@@H](CCCCN)C(=O)N[C@@H](CCCCN)C(=O)N[C@H](C(=O)N[C@@H](CC(C)C)C(N)=O)C(C)C [GFLSILKKVL]

MIC [10]: ≥ 100 µM
SMILES: CC(C)C[C@H](NC(=O)[C@H](CC(C)C)NC(=O)[C@H](CC(C)C)NC(=O)[C@H](CC(C)C)NC(=O)[C@H](CCCCN)NC(=O)[C@H](CC(C)C)NC(=O)[C@H](CCCCN)NC(=O)[C@H](CC(C)C)NC(=O)[C@@H](N)CC(C)C)C(N)=O [LLKLKLLLL]

MIC [10]: ≥ 100 µM
SMILES: CC(C)C[C@H](NC(=O)[C@H](CC(C)C)NC(=O)[C@H](CC(C)C)NC(=O)[C@H](CCCCN)NC(=O)[C@H](CCCCN)NC(=O)[C@H](CC(C)C)NC(=O)[C@H](CC(C)C)NC(=O)[C@H](CC(C)C)NC(=O)[C@@H](N)CC(C)C)C(N)=O [LLLLKKLLL]

MIC [10]: 25 µM (≈ 33.1 µg/mL)
SMILES: CC[C@H](C)[C@H](NC(=O)[C@H](Cc1c[nH]c2ccccc12)NC(=O)[C@H](CCCN=C(N)N)NC(=O)[C@H](CCCN=C(N)N)NC(=O)[C@H](Cc1c[nH]c2ccccc12)NC(=O)[C@@H](N)CCCCN)C(=O)N[C@@H](CCCN=C(N)N)C(=O)N[C@@H](CC(C)C)C(=O)N[C@@H](CC(C)C)C(N)=O [KWRRWIRLL]

Further lines, the compound ahead of its results:

SMILES: CC[C@H](C)[C@H](NC(=O)[C@@H]1CCCN1C(=O)[C@H](CCCN=C(N)N)NC(=O)[C@H](CCCN=C(N)N)NC(=O)[C@H](CCCN=C(N)N)NC(=O)[C@@H](N)CCCN=C(N)N)C(=O)N[C@@H](CCCN=C(N)N)C(=O)N[C@@H](CCCN=C(N)N)C(=O)N[C@@H](CCCN=C(N)N)C(=O)N1CCC[C@H]1C(=O)N[C@H](C(=O)N[C@@H](CCCN=C(N)N)C(=O)N1CCC[C@H]1C(=O)N1CCC[C@H]1C(=O)N[C@@H](Cc1ccccc1)C(=O)N[C@@H](Cc1ccc(O)cc1)C(=O)N[C@@H](CCCN=C(N)N)C(=O)O)[C@@H](C)CC [RRRRPIRRRPIRPPFYR]
MIC (Escherichia coli BW25113): 16 µM (≈ 37.6 µg/mL)

SMILES: CC[C@H](C)[C@H](NC(=O)CNC(=O)[C@@H](NC(=O)[C@H](C)NC(=O)[C@@H](NC(=O)[C@H](CCCCN)NC(=O)[C@@H](NC(=O)[C@@H](NC(=O)[C@@H]1CCCN1C(=O)CNC(=O)[C@H](CC(C)C)NC(=O)[C@@H](N)Cc1ccccc1)[C@@H](C)CC)[C@@H](C)CC)[C@@H](C)CC)[C@@H](C)O)C(=O)N[C@@H](CC(C)C)C(=O)N1CCC[C@H]1C(=O)N[C@H](C(=O)N[C@@H](C)C(=O)N[C@H](C(=O)N[C@H]1CSSC[C@@H](C(=O)O)NC(=O)[C@H](CCCCN)NC(=O)[C@H](CCCCN)NC(=O)[C@H](CC(C)C)NC(=O)[C@H](Cc2ccccc2)NC(=O)[C@H](CCCCN)NC1=O)[C@@H](C)CC)[C@@H](C)O [FLGPIIKIATGILPTAICKFLKKC]
MIC [1]: 1.81 µM (≈ 4.69 µg/mL)
MIC (Bacillus subtilis): 1.81 µM (≈ 4.69 µg/mL)
MIC [2]: 24.1 µM (≈ 62.5 µg/mL)
MIC (Escherichia coli ML-35p): 14.5 µM (≈ 37.5 µg/mL)
MIC [3]: 1.45 µM (≈ 3.75 µg/mL)

SMILES: CC(C)C[C@H](NC(=O)[C@H](Cc1c[nH]c2ccccc12)NC(=O)[C@H](Cc1c[nH]c2ccccc12)NC(=O)[C@H](CC(C)C)NC(=O)[C@H](Cc1c[nH]c2ccccc12)NC(=O)[C@H](Cc1c[nH]c2ccccc12)NC(=O)[C@H](CCCN=C(N)N)NC(=O)[C@H](Cc1c[nH]c2ccccc12)NC(=O)[C@@H](N)Cc1c[nH]c2ccccc12)C(N)=O [WWRWWLWWL]
MIC [10]: 3.12 µM (≈ 4.74 µg/mL)

SMILES: CC[C@H](C)[C@H](NC(=O)[C@H](CCCCN)NC(=O)[C@H](CC(=O)O)NC(=O)[C@H](CC(C)C)NC(=O)[C@@H](NC(=O)[C@H](CC(N)=O)NC(=O)[C@H](CCC(N)=O)NC(=O)[C@@H](NC(=O)[C@H](Cc1ccccc1)NC(=O)CNC(=O)[C@H](CCCCN)NC(=O)CNC(=O)[C@H](C)NC(=O)[C@H](CC(N)=O)NC(=O)[C@H](CCCCN)NC(=O)[C@@H](NC(=O)[C@@H](NC(=O)[C@H](CCC(=O)O)NC(=O)[C@H](Cc1c[nH]c2ccccc12)NC(=O)[C@H](CC(C)C)NC(=O)[C@@H](N)CO)[C@@H](C)O)[C@@H](C)CC)[C@@H](C)CC)[C@@H](C)CC)C(=O)N[C@@H](CCCN=C(N)N)C(=O)O [SLWETIKNAGKGFIQNILDKIR]
MIC [1]: 12.9 µM (≈ 32.7 µg/mL)
MIC (Bacillus subtilis): 8.6 µM (≈ 21.9 µg/mL)
MIC (Escherichia coli ML-35p): 14.7 µM (≈ 37.5 µg/mL)
MIC [3]: 3.69 µM (≈ 9.38 µg/mL)

SMILES: NCCCC[C@H](NC(=O)[C@H](Cc1c[nH]c2ccccc12)NC(=O)[C@H](CCCN=C(N)N)NC(=O)[C@H](Cc1c[nH]c2ccccc12)NC(=O)[C@H](CCCN=C(N)N)NC(=O)[C@H](Cc1c[nH]c2ccccc12)NC(=O)[C@@H](N)CCCN=C(N)N)C(=O)O [RWRWRWK]
MIC (Streptococcus mutans): 27.3 µM (≈ 32 µg/mL)

SMILES: NC(=O)[C@H](Cc1ccccc1)NC(=O)[C@H](Cc1c[nH]c2ccccc12)NC(=O)[C@H](Cc1c[nH]c2ccccc12)NC(=O)[C@H](Cc1c[nH]c2ccccc12)NC(=O)[C@H](CCCN=C(N)N)NC(=O)[C@H](CCCN=C(N)N)NC(=O)[C@H](CCCN=C(N)N)NC(=O)CNC(=O)CNC(=O)CNC(=O)[C@H](Cc1ccccc1)NC(=O)[C@H](Cc1c[nH]c2ccccc12)NC(=O)[C@H](Cc1c[nH]c2ccccc12)NC(=O)[C@H](Cc1c[nH]c2ccccc12)NC(=O)[C@H](CCCN=C(N)N)NC(=O)[C@H](CCCN=C(N)N)NC(=O)[C@@H](N)CCCN=C(N)N [RRRWWWFGGGRRRWWWF]
MIC (Streptococcus mutans): 6.3 µM (≈ 16 µg/mL)

SMILES: CC(C)C[C@H](NC(=O)[C@H](Cc1c[nH]c2ccccc12)NC(=O)[C@H](Cc1c[nH]c2ccccc12)NC(=O)[C@H](CC(C)C)NC(=O)[C@H](CCCN=C(N)N)NC(=O)[C@H](Cc1c[nH]c2ccccc12)NC(=O)[C@@H](N)CC(C)C)C(=O)N[C@@H](Cc1c[nH]c2ccccc12)C(=O)N[C@@H](Cc1c[nH]c2ccccc12)C(N)=O [LWRLWWLWW]
MIC [10]: 3.12 µM (≈ 4.51 µg/mL)
